{"source": "paper PMC11109052", "about": "“Metabolism characterization and toxicity of N-hydap, a marine candidate drug for lung cancer therapy by LC–MS method” (Natural Products and Bioprospecting, 2024)", "key": {"Cyp2e1": {"tested_on": "Cyp2e1", "assay": "DME activity ex vivo in MLMs and MKMs: CYP2E1 (6-OH-CZX from CZX)", "set-up": "species or system mice; key: ↑: up-regulation; ↓: down-regulation; –: no change", "procedure": "Mice were randomly divided into four groups, with eight animals in each group. The mice received oral pretreatment with N-hydap for 7 days at doses of 2, 5, and 10 mg/kg/day, which were considered as the low dose, medium dose, and high dose, respectively. Correspondingly, the control group received PBS. On the 8th day, the liver and kidneys were removed, and organs from eight mice per group were combined to prepare MLMs and MKMs using the detailed procedures above. Subsequently, we determined the activity of CYP and UGT enzymes by specific substrate metabolized with MLMs (0.5 mg/mL) and MKMs (0.2 mg/mL) in vitro. Specifically, the following selective substrates were used for the respective enzymes: PH (1 μM) for CYP1A2, DIC (1 μM) for CYP2C9, MP (90 μM) for CYP2C19, DM (1 μM) for CYP2D6, CZX (10 μM) for CYP2E1, Tes (1 μM) for CYP3A4, SN38 (1 μM) for UGT1A1, CACD (100 μM) for UGT1A3, Sero (20 μM) for UGT1A6, and Prop (1 μM) for UGT1A9. All substrates were dissolved in methanol or DMSO. […] In the ex vivo experiments, the activity of enzymes was measured by quantifying the production of various metabolites (nM/mg protein/min). […] The measurements were performed using multiple reaction monitoring (MRM) transitions, which are specific mass spectrometry transitions used for quantification. […]"}, "normal wild-type mice": {"tested_on": "normal wild-type mice", "assay": "Toxicity of 7-day gavage in normal wild-type mice", "experimental": "During the continuous gavage administration of N-hydap (2, 5, 10 mg/kg) to mice, their body weight was monitored daily and the mice’s activity and mental state were closely observed. […] To assess the extent of injury in the heart, liver, and kidneys, cardiac LDH, plasma ALT, AST, and Cr were measured as biochemical markers (Fig. 7B–D). Additionally, blood routines were examined, including RBC (10^12/L), HCT (%), HGB (g/dL), WBC (10^9/L), PLT (10^9/L), and Lymphocytes (%), which were used as indicators to evaluate spleen toxicity (Fig. 7E). […] To investigate this further, HE staining on tissue sections was performed from both the control group and the highest dose group (10 mg/kg).\nFig. 7 Normal wild-type mice were administered by N-hydap (2, 5, 10 mg/kg) gavage for 7 days. A Changes in body weight in mice. B Cardiac LDH level. C, D Plasma ALT, AST and Cr levels. E Blood routine indicators including RBC, HCT, HGB, WBC, PLT and Lymphocytes. F H&E staining of sections of primary organs, original magnification ×200 (mean ± S.D, n = 5–6/group). ns, no significance, were compared with control group."}, "HLMs (CYP reaction)": {"tested_on": "HLMs (CYP reaction)", "assay": "Metabolic stability in HLMs, CYP reaction", "assay_type": "in vitro ADME, human", "settings": "for remaining percentage of N-hydap: HLMs, CYP reaction", "procedure": "(§1) Various microsomes including HLMs, HKMs, HIMs, RLMs, RKMs, MLMs and MKMs were involved in CYP and UGT reactions of N-hydap. A typical CYP incubation mixture included 0.5 mg/mL microsomes protein, 3.3 mM glucose-6-phosphate, 3.3 mM MgCl2, 0.4 U/mL glucose-6-phosphate dehydrogenase, and N-hydap (1, 2.5, or 10 μM) in the 50 mM potassium phosphate buffer (KPI, pH 7.4). The incubation mixture was preincubated at 37 °C for 5 min, and the reaction was started by adding NADP to form a NADPH-regenerating system. Simultaneously, the classic UGT reaction system consisted of 50 mM KPI, 5 mM MgCl2, 0.5 mg/mL microsomes, 0.125 mg/mL alamethicin, and 5.25 mg/mL saccharolactone. The reaction was initiated after supplying UDPGA. The CYP and UGT mixtures were incubated at 37 °C in a shaking water bath (80 rpm) for 1.5 h to enhance metabolite formation. To terminate the reaction, an ice-cold solution of Tes (50 ng/mL, dissolved in methanol and used as an internal standard) was added to half of the mixture volume. The mixture was vortexed for 30 s and then centrifuged at 13,000 rpm for 15 min to eliminate any precipitated protein. The resulting supernatant was transferred to autosampler vials, and 5 μL was injected into the LC–MS system. All reactions were conducted in triplicate.\n(§2) The identical concentration of HLMs was utilized for both the CYP reaction and UGT reaction. At predetermined time intervals of 0, 15, 30, and 60 min, 100 µL samples were taken from the reaction volumes. To halt the reaction, 50 µL of 50 ng/mL Tes was added. Samples were analyzed using LC–MS to compare the remaining level of N-hydap between the CYP reaction and UGT reaction. T1/2 and CLint (in vivo) (mL/min/kg) were calculated as reported previously:\n(§3) T1/2=0.693/k, where k represents the slope of the line derived from plotting the natural logarithm of the percentage (Ln %) of N-hydap remaining in the reaction mixture against the incubation time (minutes).\n(§4) CLintinvivo=0.693/invitroT1/2×mLincubation/mgmicrosomes×45mgmicrosomes/gliver×20gliver/kgbodyweight."}, "[1]": {"assay": "Metabolic stability in HLMs, CYP reaction", "assay_type": "in vitro ADME, human", "settings": "human, human liver microsomes (CYP reaction), pH 7.4, HLMs, CYP reaction", "procedure": "as §1, §2, §3, §4"}, "[2]": {"assay": "Distribution studies in mice organs", "assay_type": "in vivo", "settings": "30 min and 4 h", "procedure": "The heart, liver, spleen, lungs and kidneys were removed from mice after administering a dose of 5 mg/kg through oral gavage and 2 mg/kg through tail vein injection at 30 min and 240 min, followed by homogenization with normal saline. The resulting homogenate was centrifuged at 4 °C, 13,000 rpm for 20 min, and the supernatant was then mixed with the internal standard by vortexing. The mixtures were centrifuged at 4 °C, 13,000 rpm for 15 min. The resulting supernatant was then subjected to vacuum drying for 3–4 h. Lastly, the dried powder was reconstituted with a mixture of 50% methanol and water, and then centrifuged for LC–MS testing."}, "[3]": {"settings": "mice, 2, 5, 10 mg/kg gavage, 7 days"}}, "note": "“Also recorded” adds a separate entry of the source.", "data": [{"molecule": "CC1CCC2C(C=CC(C)C2C(=O)c2c(O)c(C3(O)CCC(O)C4OC43)cn(O)c2=O)C1", "note": "(centres unmarked) [N-hydap, N-Hydroxyapiosporamide]", "values": [{"measurement": "CYP2E1 Enzymatic activity", "setting": "Cyp2e1; Kidney", "value": "↑"}, {"measurement": "CYP2E1 Enzymatic activity", "setting": "Cyp2e1; Liver", "value": "↓"}, {"measurement": "Toxicity LD50, experimental results", "setting": "normal wild-type mice; Table 4 experimental column", "value": "High security"}, {"measurement": "behavior during gavage", "setting": "normal wild-type mice; [3]", "value": "did not exhibit any abnormal behavior"}, {"measurement": "biochemical markers (cardiac LDH, plasma ALT, AST, Cr) and blood routine indicators vs control", "setting": "normal wild-type mice; [3]", "value": "did not show any significant differences"}, {"measurement": "body weight", "setting": "normal wild-type mice; [3]", "value": "No significant changes"}, {"measurement": "HE staining of important tissues and organs", "setting": "normal wild-type mice; mice, highest dose group 10 mg/kg, 7 days", "value": "maintained their structural integrity"}, {"measurement": "toxicity of continuous gavage at normal doses", "setting": "normal wild-type mice; normal wild mice, 2, 5, 10 mg/kg, 7 days", "value": "did not result in significant toxicity; also recorded: did not exhibit any toxicity"}, {"measurement": "remaining percentage of N-hydap", "setting": "HLMs (CYP reaction); 15 min", "value": 64.43, "unit": "%"}, {"measurement": "remaining percentage of N-hydap", "setting": "HLMs (CYP reaction); 30 min", "value": 58.02, "unit": "%"}, {"measurement": "eliminated by CYPs", "setting": "HLMs (CYP reaction); various microsomes, after 1 h", "value": "about 50%"}, {"measurement": "half-life", "setting": "[1]", "value": 2.98, "unit": "h"}, {"measurement": "CLint scaled", "setting": "[1]; extrapolated from in vitro T1/2, read-out: CLint (in vivo)", "value": 34.9, "unit": "mL/min/kg"}, {"measurement": "total distribution ratio, heart", "setting": "[2]; oral 5 mg/kg", "value": 13.35, "unit": "%"}, {"measurement": "total distribution ratio, kidneys", "setting": "[2]; oral 5 mg/kg", "value": 25.50, "unit": "%"}, {"measurement": "total distribution ratio, liver", "setting": "[2]; oral 5 mg/kg", "value": 11.45, "unit": "%"}, {"measurement": "total distribution ratio, lungs", "setting": "[2]; oral 5 mg/kg", "value": 26.26, "unit": "%"}, {"measurement": "total distribution ratio, spleen", "setting": "[2]; oral 5 mg/kg", "value": 23.44, "unit": "%"}, {"measurement": "total distribution ratio, heart", "setting": "[2]; tail vein injection 2 mg/kg", "value": 10.57, "unit": "%"}, {"measurement": "total distribution ratio, kidneys", "setting": "[2]; tail vein injection 2 mg/kg", "value": 14.08, "unit": "%"}, {"measurement": "total distribution ratio, liver", "setting": "[2]; tail vein injection 2 mg/kg", "value": 37.61, "unit": "%"}, {"measurement": "total distribution ratio, lungs", "setting": "[2]; tail vein injection 2 mg/kg", "value": 23.17, "unit": "%"}, {"measurement": "total distribution ratio, spleen", "setting": "[2]; tail vein injection 2 mg/kg", "value": 14.57, "unit": "%"}]}]}
